Data as given in patent US11293911B2, “Multi-phase liquid composition, device for measuring permeability of drugs, and method for measuring permeability of drugs” (priority 2017, dated 2022).
Like-named read-outs stand apart in the source and are kept apart here.

Experiments:
in vitro [1] = type: in vitro ADME; conditions: for Papp: not told, read-out: Permeability according to examples
Experimental: A DOPC lipid dissolved in chloroform and commercially available was collected in a glass vial, and chloroform was removed by blowing nitrogen.
The lipid film was left in the glass vial, to which the organic phase (1:1 (v/v) mixture of squalane and silicone oil (AR20)) was added, and then sonication was performed for 10-15 minutes to uniformly disperse the lipid in the oil.
Finally, an oil solution in which the lipid was dissolved (DOPC concentration: 4 mg/ml) was obtained.
Then, distilled water was added to a UV cuvette and the prepared lipid solution was added thereon.
At this time, the process of producing the lipid bilayer was performed by adding a small amount of fluorescently labeled lipid and observing it through a fluorescence microscope.
At this time, a magnetic stirring bar is placed under the UV cuvette and the lower water layer is continuously stirred during the measurement. This makes it unnecessary to consider the time when the drug passes through the lipid bilayer and diffuses to the area irradiated with UV.
The R2 value was calculated in order to determine how well the concentration and absorbance correlate at each wavelength, and the wavelength at which this value exceeds 0.99 was irradiated in the experiment.
More specifically, in FIG. 3, CA(t) means the concentration of an acceptor solution over time (where the first aqueous phase is located under the cuvette, where the drug reaches through the first lipid bilayer) and Ceq means the equilibrium concentration of the acceptor solution droplet (serving as a donor solution to provide a drug), and the acceptor solution, and is calculated by the following General Formula 1. Ceq=CD(0)VD/(VD+VA) [General Formula 1]
In General Formula 1, VA and VD are respectively the volume of a first aqueous phase (acceptor) and the volume of a second aqueous phase (donor, droplet), and CD(0) represents the drug concentration of the initial aqueous solution droplet.

in vitro [2] = conditions: PAMPA
Experimental: Subsequently, the drug concentration of the portion corresponding to the cell membrane inside (acceptor) is obtained by HPLC or UV spectroscopy, from which the membrane permeability of the corresponding drugs is calculated.

[3] = DOPC lipid bilayer, organic phase 1:1 (v/v) squalane and silicone oil (AR20), 1 μl donor droplet, real-time UV absorbance of stirred acceptor water layer

Row | Papp (in vitro [1]; [3]) [×10⁻⁶ cm/s] | Papp (in vitro [2]) [×10⁻⁶ cm/s] | Papp (in vitro [1]) [×10⁻⁶ cm/s] | Permeability to the lipid bilayer (in words) (in vitro [1]; DOPC lipid bilayer, method of the example) | Structure (SMILES)
1 | 113 | 3.5 |  |  | CC(=O)Nc1ccc(O)cc1 [Acetaminophen]
2 |  |  | 200 |  | Cc1cc(=O)n(-c2ccccc2)n1C [Antipyrine]
3 | 7.2 |  |  | very low permeability | CN/C(=N/CCSCc1nc[nH]c1C)NC#N [Cimetidine]

Row | Structure (SMILES) | Papp (in vitro [1]; [3]) [×10⁻⁶ cm/s] | Papp (in vitro [2]) [×10⁻⁶ cm/s] | Papp (in vitro [1]) [×10⁻⁶ cm/s] | Permeability to the lipid bilayer (in words) (in vitro [1]; DOPC lipid bilayer, method of the example)
4 | Cn1c(=O)c2c(ncn2C)n(C)c1=O [Caffeine] | 248 |  |  | 
